For two compounds, delta Tm Staurosporine positive control, ΔTm and inhibition results are on record in ChEMBL document CHEMBL5303765, “Data for DCP probe BAY-7081” (2023).

The target of test [1] is Ephrin type-A receptor 4 (Homo sapiens) (UniProt P54764). Briefly: EPHA4 SGC Tm panel (DSF). As to conditions: for ΔTm: Compound concentration 10.0 uM.
Test [2] has as its target Ephrin type-A receptor 5 (Homo sapiens) (UniProt P54756). The test can be described thus: EPHA5 SGC Tm panel (DSF). Conditions: for ΔTm: Compound concentration 10.0 uM.
Test [3] concerns the target T1, Mitogen-activated protein kinase 13 (Homo sapiens) (UniProt O15264).
T1 sequence (whole entry): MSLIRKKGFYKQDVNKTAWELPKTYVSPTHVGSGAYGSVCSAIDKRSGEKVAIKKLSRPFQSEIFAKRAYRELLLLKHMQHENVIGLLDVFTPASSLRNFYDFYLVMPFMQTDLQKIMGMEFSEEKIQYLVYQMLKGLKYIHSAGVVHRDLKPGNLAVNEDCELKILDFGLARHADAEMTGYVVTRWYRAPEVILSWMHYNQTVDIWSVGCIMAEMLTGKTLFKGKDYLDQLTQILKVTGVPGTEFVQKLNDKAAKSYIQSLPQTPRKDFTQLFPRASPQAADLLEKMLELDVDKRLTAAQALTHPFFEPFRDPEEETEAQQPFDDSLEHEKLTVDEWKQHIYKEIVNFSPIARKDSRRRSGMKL
Briefly: MAPK13 SGC Tm panel (DSF). Conditions: for ΔTm: Compound concentration 10.0 uM.

The target of test [4] is T2, Serine/threonine-protein kinase Nek2 (Homo sapiens) (UniProt P51955).
T2 sequence (whole entry): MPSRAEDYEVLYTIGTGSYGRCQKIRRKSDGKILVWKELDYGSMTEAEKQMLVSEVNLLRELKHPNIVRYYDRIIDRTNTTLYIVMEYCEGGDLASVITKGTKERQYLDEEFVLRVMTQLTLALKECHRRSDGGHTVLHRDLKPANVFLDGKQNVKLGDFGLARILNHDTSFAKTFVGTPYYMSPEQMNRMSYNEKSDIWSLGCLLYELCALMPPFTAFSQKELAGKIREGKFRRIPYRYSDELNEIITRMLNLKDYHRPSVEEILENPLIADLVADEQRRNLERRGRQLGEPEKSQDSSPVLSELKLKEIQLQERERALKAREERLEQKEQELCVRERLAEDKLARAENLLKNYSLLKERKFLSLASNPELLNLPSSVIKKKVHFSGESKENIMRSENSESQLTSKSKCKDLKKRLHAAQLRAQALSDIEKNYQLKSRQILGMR
Briefly: NEK2 SGC Tm panel (DSF). Conditions: for ΔTm: Compound concentration 10.0 uM.

For test [5], the target named is Proto-oncogene tyrosine-protein kinase Src (Homo sapiens) (UniProt P12931). The test can be described thus: SRC SGC Tm panel (DSF). Conditions: for ΔTm: Compound concentration 10.0 uM.
Sequence of Proto-oncogene tyrosine-protein kinase Src (Homo sapiens) (P12931 2-536 limits assumed): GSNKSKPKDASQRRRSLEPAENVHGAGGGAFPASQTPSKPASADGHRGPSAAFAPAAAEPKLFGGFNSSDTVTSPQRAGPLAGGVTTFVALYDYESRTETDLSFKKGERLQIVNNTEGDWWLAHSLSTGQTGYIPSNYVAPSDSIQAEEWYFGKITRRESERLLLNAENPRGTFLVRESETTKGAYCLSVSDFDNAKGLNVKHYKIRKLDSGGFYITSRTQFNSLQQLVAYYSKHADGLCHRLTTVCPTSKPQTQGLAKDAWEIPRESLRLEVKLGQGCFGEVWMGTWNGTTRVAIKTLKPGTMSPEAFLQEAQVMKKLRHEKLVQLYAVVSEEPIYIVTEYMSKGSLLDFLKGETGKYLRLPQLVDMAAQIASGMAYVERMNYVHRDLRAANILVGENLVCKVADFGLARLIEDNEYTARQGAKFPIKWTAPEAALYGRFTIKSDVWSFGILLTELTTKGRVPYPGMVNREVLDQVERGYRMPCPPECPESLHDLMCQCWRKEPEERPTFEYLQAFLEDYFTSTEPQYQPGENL
The target of test [6] is T3, Serine/threonine-protein kinase ULK1 (Homo sapiens) (UniProt O75385).
T3 sequence (whole entry): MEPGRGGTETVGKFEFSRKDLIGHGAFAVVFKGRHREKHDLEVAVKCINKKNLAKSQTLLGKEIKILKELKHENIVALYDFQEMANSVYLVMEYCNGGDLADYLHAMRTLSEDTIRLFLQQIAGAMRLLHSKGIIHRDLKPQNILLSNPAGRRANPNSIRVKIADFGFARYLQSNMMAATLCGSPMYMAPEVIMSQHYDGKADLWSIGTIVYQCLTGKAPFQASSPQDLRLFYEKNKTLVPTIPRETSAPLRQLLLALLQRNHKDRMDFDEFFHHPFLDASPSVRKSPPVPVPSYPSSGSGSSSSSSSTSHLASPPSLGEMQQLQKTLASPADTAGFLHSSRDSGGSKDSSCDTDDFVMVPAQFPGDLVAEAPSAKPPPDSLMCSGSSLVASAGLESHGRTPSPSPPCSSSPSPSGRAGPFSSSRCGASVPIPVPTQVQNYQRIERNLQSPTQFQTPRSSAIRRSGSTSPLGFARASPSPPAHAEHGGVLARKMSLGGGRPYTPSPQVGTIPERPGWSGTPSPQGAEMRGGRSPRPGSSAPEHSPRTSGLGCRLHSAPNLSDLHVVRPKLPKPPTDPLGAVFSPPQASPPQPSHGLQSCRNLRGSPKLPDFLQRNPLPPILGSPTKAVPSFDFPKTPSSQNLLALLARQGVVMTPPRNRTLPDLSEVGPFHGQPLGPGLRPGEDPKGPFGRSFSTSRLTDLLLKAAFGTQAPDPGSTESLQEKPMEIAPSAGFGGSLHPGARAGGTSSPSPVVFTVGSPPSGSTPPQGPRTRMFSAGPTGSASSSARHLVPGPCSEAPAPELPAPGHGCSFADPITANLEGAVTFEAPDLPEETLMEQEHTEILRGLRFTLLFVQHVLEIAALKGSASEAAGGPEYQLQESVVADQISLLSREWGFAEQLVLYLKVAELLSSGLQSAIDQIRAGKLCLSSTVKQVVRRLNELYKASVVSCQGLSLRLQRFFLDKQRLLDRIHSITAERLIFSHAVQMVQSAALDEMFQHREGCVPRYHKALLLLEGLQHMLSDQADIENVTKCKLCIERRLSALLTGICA
The test can be described thus: ULK1 SGC Tm panel (DSF). Conditions: for ΔTm: Compound concentration 10.0 uM.

The target of test [7] is T4, 5-hydroxytryptamine receptor 3A (Homo sapiens) (UniProt P46098).
T4 sequence (whole entry): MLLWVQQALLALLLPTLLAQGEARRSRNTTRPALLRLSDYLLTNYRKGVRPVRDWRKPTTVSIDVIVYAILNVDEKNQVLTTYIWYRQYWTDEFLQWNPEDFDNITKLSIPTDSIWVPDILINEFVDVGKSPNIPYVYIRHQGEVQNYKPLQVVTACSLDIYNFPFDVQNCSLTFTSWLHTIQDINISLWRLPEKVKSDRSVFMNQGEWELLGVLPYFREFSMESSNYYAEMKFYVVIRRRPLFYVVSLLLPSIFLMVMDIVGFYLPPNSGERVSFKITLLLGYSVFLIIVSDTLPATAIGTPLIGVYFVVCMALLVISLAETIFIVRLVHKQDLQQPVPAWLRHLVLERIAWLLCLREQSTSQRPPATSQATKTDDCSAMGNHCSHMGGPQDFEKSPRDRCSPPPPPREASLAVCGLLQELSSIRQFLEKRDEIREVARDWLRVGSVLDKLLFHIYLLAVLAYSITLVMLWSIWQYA
As to conditions: Compound concentration 10.0 uM.

Test [8] concerns the target D(3) dopamine receptor (Homo sapiens) (UniProt P35462). Conditions: Compound concentration 10.0 uM.
The target of test [9] is D(1B) dopamine receptor (Homo sapiens) (UniProt P21918). As to conditions: Compound concentration 10.0 uM.
Sequence of D(1B) dopamine receptor (Homo sapiens) (P21918 whole entry): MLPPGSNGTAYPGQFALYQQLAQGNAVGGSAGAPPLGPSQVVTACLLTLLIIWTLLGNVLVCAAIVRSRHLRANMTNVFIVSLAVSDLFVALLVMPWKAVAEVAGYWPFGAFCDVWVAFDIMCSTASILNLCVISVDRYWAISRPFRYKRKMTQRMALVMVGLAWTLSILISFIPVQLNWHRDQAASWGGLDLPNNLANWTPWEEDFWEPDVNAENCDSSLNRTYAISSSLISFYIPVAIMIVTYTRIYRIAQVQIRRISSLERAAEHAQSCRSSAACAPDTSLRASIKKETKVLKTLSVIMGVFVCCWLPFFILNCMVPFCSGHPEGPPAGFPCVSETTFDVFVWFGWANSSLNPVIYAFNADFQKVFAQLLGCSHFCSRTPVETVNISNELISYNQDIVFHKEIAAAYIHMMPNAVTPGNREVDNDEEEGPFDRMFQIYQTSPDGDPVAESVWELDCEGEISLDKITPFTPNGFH
Test [10] is filed under the species Rattus norvegicus. As to conditions: Compound concentration 10.0 uM.

Sequence of Ephrin type-A receptor 5 (Homo sapiens) (P54756 whole entry): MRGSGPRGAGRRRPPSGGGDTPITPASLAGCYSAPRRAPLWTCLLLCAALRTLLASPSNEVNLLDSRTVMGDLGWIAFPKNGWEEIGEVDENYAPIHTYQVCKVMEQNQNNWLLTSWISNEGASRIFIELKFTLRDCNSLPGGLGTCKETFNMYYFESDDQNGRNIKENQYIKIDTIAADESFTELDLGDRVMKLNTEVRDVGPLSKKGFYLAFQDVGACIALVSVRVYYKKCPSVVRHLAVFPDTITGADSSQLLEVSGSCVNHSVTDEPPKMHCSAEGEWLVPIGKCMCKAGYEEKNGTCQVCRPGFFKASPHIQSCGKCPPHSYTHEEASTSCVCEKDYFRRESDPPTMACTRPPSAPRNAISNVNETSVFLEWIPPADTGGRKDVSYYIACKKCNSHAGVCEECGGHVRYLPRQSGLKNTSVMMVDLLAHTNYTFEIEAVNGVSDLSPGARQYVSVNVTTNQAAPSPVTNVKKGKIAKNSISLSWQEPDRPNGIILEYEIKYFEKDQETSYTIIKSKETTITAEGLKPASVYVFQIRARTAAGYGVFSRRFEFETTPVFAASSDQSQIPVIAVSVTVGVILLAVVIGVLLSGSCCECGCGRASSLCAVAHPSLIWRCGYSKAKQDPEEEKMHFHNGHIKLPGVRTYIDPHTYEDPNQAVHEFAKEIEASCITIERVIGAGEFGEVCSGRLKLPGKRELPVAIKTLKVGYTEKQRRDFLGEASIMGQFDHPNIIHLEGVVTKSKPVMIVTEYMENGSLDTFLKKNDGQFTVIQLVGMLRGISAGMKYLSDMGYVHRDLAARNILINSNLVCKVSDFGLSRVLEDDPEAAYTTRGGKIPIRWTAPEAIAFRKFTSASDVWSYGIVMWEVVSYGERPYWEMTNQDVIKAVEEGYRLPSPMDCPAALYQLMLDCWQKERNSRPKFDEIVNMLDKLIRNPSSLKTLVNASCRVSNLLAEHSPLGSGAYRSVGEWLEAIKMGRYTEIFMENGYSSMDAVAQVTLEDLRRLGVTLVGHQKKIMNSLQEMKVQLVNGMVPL
Sequence of Ephrin type-A receptor 4 (Homo sapiens) (P54764 whole entry): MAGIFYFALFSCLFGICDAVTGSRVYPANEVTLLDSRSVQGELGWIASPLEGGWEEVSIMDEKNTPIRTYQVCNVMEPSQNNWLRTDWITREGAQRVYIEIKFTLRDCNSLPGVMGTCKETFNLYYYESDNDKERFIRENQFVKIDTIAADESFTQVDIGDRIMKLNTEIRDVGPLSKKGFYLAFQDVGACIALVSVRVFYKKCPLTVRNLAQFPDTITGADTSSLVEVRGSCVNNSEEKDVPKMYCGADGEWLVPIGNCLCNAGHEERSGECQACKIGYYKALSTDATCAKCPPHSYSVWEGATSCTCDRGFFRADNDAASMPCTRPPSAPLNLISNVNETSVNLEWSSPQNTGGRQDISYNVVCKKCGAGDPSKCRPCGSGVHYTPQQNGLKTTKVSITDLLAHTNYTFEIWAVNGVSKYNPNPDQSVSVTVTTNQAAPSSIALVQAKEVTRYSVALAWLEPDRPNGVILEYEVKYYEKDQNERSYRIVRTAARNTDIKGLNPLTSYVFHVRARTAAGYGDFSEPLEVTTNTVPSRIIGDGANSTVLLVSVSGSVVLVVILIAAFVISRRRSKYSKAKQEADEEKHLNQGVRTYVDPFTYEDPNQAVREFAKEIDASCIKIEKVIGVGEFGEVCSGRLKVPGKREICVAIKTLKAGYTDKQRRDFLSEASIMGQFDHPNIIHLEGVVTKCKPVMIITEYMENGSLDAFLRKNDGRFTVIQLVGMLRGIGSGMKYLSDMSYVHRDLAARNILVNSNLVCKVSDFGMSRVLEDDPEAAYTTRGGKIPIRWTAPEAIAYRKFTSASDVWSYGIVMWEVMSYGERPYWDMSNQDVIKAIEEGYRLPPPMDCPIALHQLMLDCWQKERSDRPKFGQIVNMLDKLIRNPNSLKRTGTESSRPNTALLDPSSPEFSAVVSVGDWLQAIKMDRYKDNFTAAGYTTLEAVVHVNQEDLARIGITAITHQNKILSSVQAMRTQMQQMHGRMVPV
Sequence of D(3) dopamine receptor (Homo sapiens) (P35462 whole entry): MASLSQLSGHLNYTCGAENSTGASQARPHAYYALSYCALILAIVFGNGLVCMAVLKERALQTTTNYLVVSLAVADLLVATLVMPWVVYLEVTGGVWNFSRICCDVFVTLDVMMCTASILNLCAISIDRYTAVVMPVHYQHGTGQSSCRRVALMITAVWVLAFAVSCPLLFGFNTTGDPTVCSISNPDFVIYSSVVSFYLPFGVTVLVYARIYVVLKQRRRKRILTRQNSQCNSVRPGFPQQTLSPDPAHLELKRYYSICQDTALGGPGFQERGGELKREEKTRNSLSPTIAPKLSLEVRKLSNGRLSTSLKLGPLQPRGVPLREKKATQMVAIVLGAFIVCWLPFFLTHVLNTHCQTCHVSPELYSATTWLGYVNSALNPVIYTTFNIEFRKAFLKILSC

In the case of `CCC[C@H]1CNCc2c1[nH]c(=O)c(C#N)c2N1CCC2(CC1)CC2`, the delta Tm Staurosporine positive control in test [1] came out at 6.68; in test [2] it was 8.04; in test [3], 8.03; in test [4], 4.25; in [5] it was 7.39; in test [6], 14. In addition, the ΔTm in test [1] is -0.324; in [2], -0.544; in test [3], 0.098; in test [4] it was -1.22; in [5], -0.143; in [6], 0.0473. In addition, the inhibition was 7.4% in [7], 12.3% in test [8], 2.11% in [9] and 10.4% in [10].

For `CCC[C@@H]1CNCc2c1[nH]c(=O)c(C#N)c2N1CCC2(CC1)CC2`, the delta Tm Staurosporine positive control was 6.68 in [1]; 8.04 in [2]; 8.03 in [3]; 4.25 in test [4]; 7.39 in test [5]; 14 in test [6]. Also, the ΔTm was -0.295 in test [1]; -0.589 in [2]; 0.124 in [3]; -1.52 in test [4]; -0.0953 in test [5]; 0.234 in test [6]. For the same compound, the inhibition is 5.44% in test [7], -9.68% in test [8], 4.19% in [9] and 0.4% in test [10].

By inhibition is commonly meant the relative decrease from the control value, in per cent.
